Experimental data published in ChEMBL document CHEMBL4359906, “Design and synthesis of new N-terminal fatty acid modified-antimicrobial peptide analogues with potent in vitro biological activity” (Eur J Med Chem, 2019).
In brackets after ≈: the same amount, converted by molar mass. Activity calls are given as the source filed them. The calls are words filed in the database; no cut-off is given here.

Legend:
[1] = Selectivity index, ratio of MHC10 for human RBC to geometric mean of peptide MIC for gram positive bacteria; format: toxicity; details: human red blood cells, read-out: Selectivity Index
Escherichia coli [2] = test: Disruption of membrane integrity in Escherichia coli ATCC 25922 assessed as membrane damage by measuring PI fluorescence at 2 times of MIC incubated for 1 hr by PI dye based flow cytometric analysis (reference value: 1.35%); format: functional
Klebsiella pneumoniae [3] = test: Potentiation of polymyxin B-induced antibacterial activity against Klebsiella pneumoniae ATCC 700603 assessed as FICI after 18 hrs by checker board assay; format: functional
Klebsiella pneumoniae [4] = test: Potentiation of rifampicin-induced antibacterial activity against Klebsiella pneumoniae ATCC 700603 assessed as FICI after 18 hrs by checker board assay; format: functional
Pseudomonas aeruginosa [5] = test: Potentiation of polymyxin B-induced antibacterial activity against Pseudomonas aeruginosa ATCC 27853 assessed as FICI after 18 hrs by checker board assay; format: functional
[6] = Selectivity index, ratio of MHC10 for human RBC to geometric mean of peptide MIC for gram negative bacteria; format: toxicity; details: human red blood cells, read-out: Selectivity Index
DNA = test: Binding affinity to Escherichia coli ATCC 25922 genomic DNA after 30 mins by agarose gel electrophoresis; format: nucleic-acid assay
Erythrocyte = test: Hemolytic activity in human RBC measured after 1 hr by microplate reader analysis; format: ADME, cell-based
Pseudomonas aeruginosa [7] = test: Potentiation of rifampicin-induced antibacterial activity against Pseudomonas aeruginosa ATCC 27853 assessed as FICI after 18 hrs by checker board assay; format: functional
Escherichia coli [8] = test: Antibiofilm activity against Escherichia coli ATCC 25922 after 24 hrs by crystal violet staining based assay; format: functional, organism-based
Escherichia coli [9] = test: Induction of membrane disruption in Escherichia coli ATCC 25922 assessed as corrugated membrane surface at 4 times of MIC after 2 hrs by SEM analysis; format: functional, organism-based
Escherichia coli [10] = test: Disruption of membrane integrity in Escherichia coli ATCC 25922 assessed as membrane damage by measuring PI fluorescence at 4 times of MIC incubated for 1 hr by PI dye based flow cytometric analysis (reference value: 1.35%); format: functional
Escherichia coli [11] = test: Ratio of antibacterial activity against Escherichia coli ATCC 25922 in presence of NaCl to antibacterial activity against Escherichia coli ATCC 25922; format: functional
Escherichia coli [12] = test: Induction of inner membrane permeabilization in Escherichia coli ATCC 43837 assessed as increase in ONPG release at 1 to 2 times of MIC by ONPG dye based assay; format: organism-based
Staphylococcus aureus [13] = test: Ratio of antibacterial activity against Staphylococcus aureus ATCC 25923 in presence of NaCl to antibacterial activity against Staphylococcus aureus ATCC 25923; format: functional
Escherichia coli [14] = test: Induction of membrane disruption in Escherichia coli ATCC 25922 assessed as fracture in membrane at 4 times of MIC after 2 hrs by SEM analysis; format: functional, organism-based
Escherichia coli [15] = test: Induction of membrane disruption in Escherichia coli ATCC 25922 assessed as rough membrane surface at 4 times of MIC after 2 hrs by SEM analysis; format: functional, organism-based
Escherichia coli [16] = test: Potentiation of rifampicin-induced antibacterial activity against Escherichia coli ATCC 25922 assessed as FICI after 18 hrs by checker board assay; format: functional
Pseudomonas aeruginosa [17] = test: Antibacterial activity against Pseudomonas aeruginosa ATCC 27853 after 18 hrs by CLSI based broth microdilution method; format: functional; details: ATCC 27853, 18 h
Pseudomonas aeruginosa [18] = test: Antibiofilm activity against Pseudomonas aeruginosa ATCC 27853 after 24 hrs by crystal violet staining based assay; format: functional, organism-based
Staphylococcus aureus [19] = test: Ratio of antibacterial activity against Staphylococcus aureus ATCC 25923 in presence of FeCl3 to antibacterial activity against Staphylococcus aureus ATCC 25923; format: functional
Escherichia coli [20] = test: Antimicrobial activity against Escherichia coli ATCC 25922 at 1 mM preincubated for 6 hrs in presence of 2000 ug/ml trypsin and measured after 18 hrs by microplate reader analysis; format: functional, organism-based
Escherichia coli [21] = test: Ratio of antibacterial activity against Escherichia coli ATCC 25922 in presence of FeCl3 to antibacterial activity against Escherichia coli ATCC 25922; format: functional
Escherichia coli [22] = test: Potentiation of polymyxin B-induced antibacterial activity against Escherichia coli ATCC 25922 assessed as FICI after 18 hrs by checker board assay; format: functional
Escherichia coli [23] = test: Induction of outer membrane permeabilization in Escherichia coli ATCC 25922 measured up to 12 mins by NPN-dye based assay; format: organism-based
Staphylococcus aureus [24] = test: Ratio of antibacterial activity against Staphylococcus aureus ATCC 25923 in presence of KCl to antibacterial activity against Staphylococcus aureus ATCC 25923; format: functional
Staphylococcus aureus [25] = test: Antibiofilm activity against Staphylococcus aureus ATCC 25923 after 24 hrs by crystal violet staining based assay; format: functional, organism-based
Staphylococcus aureus [26] = test: Antibacterial activity against Staphylococcus aureus ATCC 25923 after 18 hrs by CLSI based broth microdilution method; format: functional; details: ATCC 25923, 18 h
Escherichia coli [27] = test: Antibacterial activity against Escherichia coli ATCC 43837 after 18 hrs by CLSI based broth microdilution method; format: functional; details: ATCC 43837, 18 h
Escherichia coli [28] = test: Induction of inner membrane permeabilization in Escherichia coli ATCC 43837 assessed as increase in ONPG release at 4 times of MIC by ONPG dye based assay; format: organism-based
Escherichia coli [29] = test: Induction of membrane disruption in Escherichia coli ATCC 25922 assessed as degeneration in membrane at 4 times of MIC after 2 hrs by SEM analysis; format: functional, organism-based
Escherichia coli [30] = test: Ratio of antibacterial activity against Escherichia coli ATCC 25922 in presence of KCl to antibacterial activity against Escherichia coli ATCC 25922; format: functional
Escherichia coli [31] = test: Ratio of MIC for Escherichia coli ATCC 25922 preincubated for 1 hr in presence of 10% mouse serum and measured after 18 hrs to MIC for antibacterial activity against Escherichia coli ATCC 25922 after 18 hrs; format: functional
Klebsiella pneumoniae [32] = test: Antibacterial activity against Klebsiella pneumoniae ATCC 700603 after 18 hrs by CLSI based broth microdilution method; format: functional; details: Klebsiella pneumoniae, 700603, 18 h
Staphylococcus aureus [33] = test: Antibacterial activity against methicillin-resistant Staphylococcus aureus 936 after 18 hrs by CLSI based broth microdilution method; format: functional; details: Staphylococcus aureus, 936, 18 h
Escherichia coli [34] = test: Antibacterial activity against Escherichia coli ATCC 25922 after 18 hrs by CLSI based broth microdilution method; format: functional; details: ATCC 25922, 18 h
Escherichia coli [35] = test: Antibacterial activity against Escherichia coli ATCC 25922 at 0.5 times MIC incubated for 18 hrs measured for 15 passages by CLSI based broth microdilution method; format: functional, organism-based
Escherichia coli [36] = test: Ratio of antibacterial activity against Escherichia coli ATCC 25922 in presence of MgCl2 to antibacterial activity against Escherichia coli ATCC 25922; format: functional
Escherichia coli [37] = test: Antimicrobial activity against Escherichia coli ATCC 25922 at 1 mM preincubated for 6 hrs in presence of 2 ug/ml chymotrypsin and measured after 18 hrs by microplate reader analysis; format: functional, organism-based
Pseudomonas aeruginosa [38] = test: Antibiofilm activity against Pseudomonas aeruginosa ATCC 27853 at 0.25 to 2 times of MIC after 24 hrs by crystal violet staining based assay; format: functional, organism-based

Structure (SMILES) | selectivity ratio [1] | Activity (Escherichia coli [2]) | fractional inhibitory concentration index (FICI) (Klebsiella pneumoniae [3]) | fractional inhibitory concentration index (FICI) (Klebsiella pneumoniae [4]) | fractional inhibitory concentration index (FICI) (Pseudomonas aeruginosa [5]) | selectivity ratio [6] | Activity (DNA) | MHC10 (Erythrocyte) | fractional inhibitory concentration index (FICI) (Pseudomonas aeruginosa [7]) | inhibition (Escherichia coli [8]) | Activity (Escherichia coli [9]) | Activity (Escherichia coli [10]) | Ratio (Escherichia coli [11]) | Activity (Escherichia coli [12]) | Ratio (Staphylococcus aureus [13]) | Activity (Escherichia coli [14]) | Activity (Escherichia coli [15]) | fractional inhibitory concentration index (FICI) (Escherichia coli [16]) | MIC (Pseudomonas aeruginosa [17]) | inhibition (Pseudomonas aeruginosa [18]) | other results
CCCC(=O)NC(Cc1cn(CCCC[C@H](NC(C)=O)C(=O)NCC(=O)N[C@@H](CC(C)C)C(=O)N[C@@H](CC(C)C)C(=O)N[C@H](CCCCN)C(=O)N[C@@H](CCCNC(=N)N)C(=O)N[C@H](C(=O)N[C@H](CCCCN)C(=O)N[C@H](C(=O)N[C@@H](CC(C)C)C(=O)N[C@@H](CC(C)C)C(N)=O)[C@@H](C)O)[C@@H](C)CC)nn1)C(=O)NCC(=O)N[C@@H](CC(C)C)C(=O)N[C@@H](CC(C)C)C(=O)N[C@H](CCCCN)C(=O)N[C@@H](CCCNC(=N)N)C(=O)N[C@H](C(=O)N[C@H](CCCCN)C(=O)N[C@H](C(=O)N[C@@H](CC(C)C)C(=O)N[C@@H](CC(C)C)C(N)=O)[C@@H](C)O)[C@@H](C)CC (stereo not given in full) | 5.91 | 21.2% | 0.1875 | 0.3125 | 0.375 | 32 | Dose-dependent effect | > 256 µM | 0.375 | Dose-dependent effect | Active | 43.2% | 2 - 4 | Active | 2 - 4 | Active | Active | 0.3125 | 8 µM (≈ 21.3 µg/mL) | Dose-dependent effect | Ratio (Staphylococcus aureus [19]): 2 - 4; Activity (Escherichia coli [20]): Active; Ratio (Escherichia coli [21]): 2 - 4; fractional inhibitory concentration index (FICI) (Escherichia coli [22]): 0.3125; Activity (Escherichia coli [23]): Dose-dependent effect; Ratio (Staphylococcus aureus [24]): 2 - 4; inhibition (Staphylococcus aureus [25]): Dose-dependent effect; MIC (Staphylococcus aureus [26]): 128 µM (≈ 342 µg/mL); MIC (Escherichia coli [27]): 8 µM (≈ 21.3 µg/mL); Activity (Escherichia coli [28]): Active; Activity (Escherichia coli [29]): Active; Ratio (Escherichia coli [30]): 2 - 4; Ratio (Escherichia coli [31]): 1; MIC (Klebsiella pneumoniae [32]): 32 µM (≈ 85.4 µg/mL); MIC (Staphylococcus aureus [33]): 128 µM (≈ 342 µg/mL); MIC (Escherichia coli [34]): 16 µM (≈ 42.7 µg/mL); Activity (Escherichia coli [35]): Active; Ratio (Escherichia coli [36]): 2 - 4; Activity (Escherichia coli [37]): Active; inhibition (Pseudomonas aeruginosa [38]): Active
CCCCCCCCCCCC(=O)NC(Cc1cn(CCCC[C@H](NC(C)=O)C(=O)NCC(=O)N[C@@H](CC(C)C)C(=O)N[C@@H](CC(C)C)C(=O)N[C@H](CCCCN)C(=O)N[C@@H](CCCNC(=N)N)C(=O)N[C@H](C(=O)N[C@H](CCCCN)C(=O)N[C@H](C(=O)N[C@@H](CC(C)C)C(=O)N[C@@H](CC(C)C)C(N)=O)[C@@H](C)O)[C@@H](C)CC)nn1)C(=O)NCC(=O)N[C@@H](CC(C)C)C(=O)N[C@@H](CC(C)C)C(=O)N[C@H](CCCCN)C(=O)N[C@@H](CCCNC(=N)N)C(=O)N[C@H](C(=O)N[C@H](CCCCN)C(=O)N[C@H](C(=O)N[C@@H](CC(C)C)C(=O)N[C@@H](CC(C)C)C(N)=O)[C@@H](C)O)[C@@H](C)CC (stereo not given in full) | 1.85 | 60.7% | 0.3125 | 0.5 | 0.1875 | 2 | Dose-dependent effect | 16 µM | 0.3125 | Dose-dependent effect | Active | 88.9% | 2 - 4 | Active | 2 - 4 | Active | Active | 0.5625 | 8 µM (≈ 22.2 µg/mL) | Dose-dependent effect | Ratio (Staphylococcus aureus [19]): 2 - 4; Activity (Escherichia coli [20]): Active; Ratio (Escherichia coli [21]): 2 - 4; fractional inhibitory concentration index (FICI) (Escherichia coli [22]): 0.3125; Activity (Escherichia coli [23]): Dose-dependent effect; Ratio (Staphylococcus aureus [24]): 2 - 4; inhibition (Staphylococcus aureus [25]): Dose-dependent effect; MIC (Staphylococcus aureus [26]): 8 µM (≈ 22.2 µg/mL); MIC (Escherichia coli [27]): 8 µM (≈ 22.2 µg/mL); Activity (Escherichia coli [28]): Active; Activity (Escherichia coli [29]): Active; Ratio (Escherichia coli [30]): 2 - 4; Ratio (Escherichia coli [31]): 2; MIC (Klebsiella pneumoniae [32]): 8 µM (≈ 22.2 µg/mL); MIC (Staphylococcus aureus [33]): 16 µM (≈ 44.5 µg/mL); MIC (Escherichia coli [34]): 8 µM (≈ 22.2 µg/mL); Activity (Escherichia coli [35]): Active; Ratio (Escherichia coli [36]): 2 - 4; Activity (Escherichia coli [37]): Active; inhibition (Pseudomonas aeruginosa [38]): Active
